Reference: patent US20230286973A1, “PROTEIN SECRETION INHIBITORS” (KEZAR LIFE SCIENCES, priority 2020, published 2023)

Key:
[1] = test system: TNFα-FL/Gaussia Luciferase; assay: Dox Induced TNFα-FL-Gluc Assay; assay type: cell-based; details: for IC50: 24 hr Dox induction, 293FRT/TO cells, mean, read-out: 24 hr Dox Inducible TNFaFLGluc 293FRT/TO: Mean IC50; for 24 hr Dox Inducible TNFaFLGluc 293FRT/TO: TNF/PD1: ratio of TNFaFLGluc IC50 to PD1ssGluc IC50, '<=>' given where both are I.A.
Method in brief: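 Flp-In 293 T-REx cells stably carrying doxycycline-inducible full-length TNFα (aa 1-233) fused to Gaussia luciferase. Plated the day before, then treated with compound dilutions in doxycycline-containing medium at 37° C, 5% CO2.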

[2] = test system: multiple myeloma cell line U266B1; assay: U266 Cell Viability Assay; assay type: cell-based, human; details: Homo sapiens, U-266, 48 h, U266B1 cells, Celltiter-Glo
Method in brief: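 U266B1 multiple myeloma cells in RPMI 1640/10% FBS were treated with compound dilutions for 48 h at 37 °C, 5% CO2. Viability was measured by CellTiter-Glo luminescence; compounds drawn without stereochemistry were tested as stereoisomer mixtures.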

[3] = Liver Microsome Stability Assay (human); details: human liver microsomes, with NADPH, 1.0 uM compound
Experimental: (§1) Stability of a compound was assessed in the presence of liver microsomes from various sources—mouse, rat, monkey and human liver microsomes. 1.0 uM compound, 0.4% DMSO in 0.1 M Potassium Phosphate with 1.0 mg/mL liver microsomes, were incubated at 37° C. with or without 1 mM NADPH. The samples were quenched at 0, and 30 minutes.

[4] = test system: PD1-ss+10aa/Gaussia Luciferase; assay: Dox-Induced PD1-ss-Gluc Assay; assay type: cell-based; details: 24 hr Dox induction; 293FRT/TO cells; mean; read-out: 24 hr Dox Inducible PD1ssGluc 293FRT/TO: Mean IC50
Method in brief: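 Compounds were added in DMSO/media with doxycycline and incubated at 37 °C, 5% CO2, on 293 T-REx cells plated one day earlier. These cells stably express, under tetracycline-regulated control, a Gaussia luciferase fused to the PD1 signal peptide plus 10 residues. Structures drawn without stereochemistry were tested as stereoisomer mixtures.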

[5] = test system: HER3-ss+4aa/Gaussia Luciferase; assay: Dox-Induced Her3-ss-Gluc Assay; assay type: cell-based; details: 24 hr Dox induction; 293FRT/TO cells; mean; read-out: 24 hr Dox Inducible Her3(ss + 4)Gluc 293FRT/TO: Mean IC50
Method in brief: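 Stable Flp-In 293 T-REx cells carried a doxycycline-inducible HER3 signal sequence (+4 aa) fused to Gaussia luciferase. Cells were plated the day before the assay. Compound dilutions in DMSO/media containing doxycycline were then added, and plates were incubated at 37 °C, 5% CO2.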

[6] = Liver Microsome Stability Assay (rat); details: rat liver microsomes, with NADPH, 1.0 uM compound
Experimental: as §1

[7] = Liver Microsome Stability Assay (monkey); details: monkey liver microsomes, with NADPH, 1.0 uM compound
Experimental: as §1

[8] = test system: multiple myeloma cell line NCI-H929; assay: H929 Cell Viability Assay; assay type: cell-based, human; details: Homo sapiens, NCI-H929, 48 h, NCI-H929 cells, Celltiter-Glo
Method in brief: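 NCI-H929 cells in RPMI 1640 with 10% FBS were treated with compound dilutions for 48 h at 37° C, 5% CO2. Viability was read by CellTiter-Glo luminescence. Undefined stereocentres denote stereoisomer mixtures.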

[9] = Liver Microsome Stability Assay (mouse); details: mouse liver microsomes, with NADPH, 1.0 uM compound
Experimental: as §1

[10] = test system: IL-2-FL/Gaussia Luciferase; assay: Dox Induced IL2-FL-Gluc Assay; assay type: cell-based; details: for IC50: 24 hr Dox induction, 293FRT/TO cells, mean, read-out: 24 hr Dox Inducible IL2FLGluc 293FRT/TO: Mean IC50; for 24 hr Dox Inducible IL2FLGluc 293FRT/TO: IL2/PD1: ratio of IL2FLGluc IC50 to PD1ssGluc IC50, '<=>' given where both are I.A.
Method in brief: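 Stable Flp-In 293 T-REx cells carrying doxycycline-inducible full-length IL-2 (aa 1-153) fused to Gaussia luciferase, plated the day before assay. Compound dilutions added in medium containing doxycycline, incubated at 37 °C, 5% CO2. Undefined stereocentres mean data refer to stereoisomer mixtures.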

Compound	IC50 [1] [µM]	24 hr Dox Inducible TNFaFLGluc 293FRT/TO: TNF/PD1 [1]	EC50 [2] [µM]	Liver Microsome Stability (Multiple Species): Human - % Remaining after 30 min w/NADPH [3] [%]	IC50 [4] [µM]	IC50 [5] [µM]	Liver Microsome Stability (Multiple Species): Rat - % Remaining after 30 min w/NADPH [6] [%]	Liver Microsome Stability (Multiple Species): Monkey - % Remaining after 30 min w/NADPH [7] [%]	EC50 [8] [µM]	Liver Microsome Stability (Multiple Species): Mouse - % Remaining after 30 min w/NADPH [9] [%]	IC50 [10] [µM]	24 hr Dox Inducible IL2FLGluc 293FRT/TO: IL2/PD1 [10]
NC(=O)CCCCn1cccc1C(=O)Nc1nc([C@H]2CCCN2c2ccccc2)cs1 [Compound C58]	> 25	>3.17	> 25	35.7	7.88	9.1	34.7	27.4	> 25	17	> 25	3.2
CN(C)C(=O)CCn1cccc1C(=O)Nc1nc([C@H]2CCCN2c2ccccc2)cs1 [Compound C59, (R)-1-(3-(dimethylamino)-3-oxopropyl)-N-(4-(1-phenylpyrrolidin-2-yl)thiazol-2-yl)-1H-pyrrole-2-carboxamide]	> 25	>3.13	> 25	0.87	7.98	12.2	11.5	2.48	> 25	3.23	> 25	3.1
CN(C)C(=O)CCCCn1cccc1C(=O)Nc1nc([C@H]2CCCN2c2ccccc2)cs1 [Compound C60, (R)-1-(5-(dimethylamino)-5-oxopentyl)-N-(4-(1-phenylpyrrolidin-2-yl)thiazol-2-yl)-1H-pyrrole-2-carboxamide]	> 25	>2.91	> 25	0.05	8.59	> 25	6.4	0.09	> 25	0.25	> 25	2.9
CN(C)C(=O)CCCn1cccc1C(=O)Nc1nc([C@H]2CCCN2c2ccccc2)cs1 [Compound C61, (R)-1-(4-(dimethylamino)-4-oxobutyl)-N-(4-(1-phenylpyrrolidin-2-yl)thiazol-2-yl)-1H-pyrrole-2-carboxamide]	> 25	>2.79	> 25	0.27	8.96	20.4	3.4	0.03	> 25	0.16	16.7	1.9
O=C(Nc1nc([C@H]2CCCN2c2ccccc2)cs1)c1cccn1CC1COC1 [Compound C84, (R)-1-(oxetan-3-ylmethyl)-N-(4-(1-phenylpyrrolidin-2-yl)thiazol-2-yl)-1H-pyrrole-2-carboxamide]	> 25	>5.88	> 25	31.5	4.25	6.59	4.2	0.28	> 25	22.3	> 25	>5.9
